The record followed here is paper PMC8230370, “Antiproliferative Illudalane Sesquiterpenes from the Marine Sediment Ascomycete Aspergillus oryzae” (Marine Drugs, 2021).

In one data set the test system is A549 (lung) cancer cells. Kind of data set: MTT antiproliferative assay, A549 lung carcinoma. The format is cell-based, human. The note with it: 48 h incubation, read-out: IC50 for the Different Carcinoma Cell Lines, A549 (Lung). How it is done:
(§1) The antiproliferative activity of compounds was measured using MTT (3-(4, 5-dimethylthiazol-2-yl)-2,5-diphenyltetrazolium bromide) assay. A549 (lung), HepG2 (liver), and MCF-7 (breast) cancer cells were purchased from the American Type Cell Collection (ATCC, Manassas, VA, USA). The cells were seeded at 5 × 10^4 cells/well (in 100 μL of DMEM) in 96-well microplates. After 24 h incubation at 37 °C, serial dilution (15–250 µM) of each compound was added and incubated for 48 h. Thereafter, 10 μL of the MTT solution (5 mg/mL) was added to each well. After 4 h incubation with the MTT solution, a volume of 100 μL of acidified isopropanol was added to solubilize the formazan product and incubated on a shaker for a further 10 min. Reduced MTT was assayed at 570 nm using a microplate reader (BioTek, Winoosky, VT, USA). Control groups received the same amount of DMSO (0.1%), untreated cells were used as a negative control, whereas cells treated with doxorubicin were used as a positive control. The IC50 (concentration that caused more than 50% inhibition of proliferation) was calculated from a dose-dependent curve. The cell viability percent was calculated = mean absorbance of treated sample/mean absorbance of control ×100.
For orientation: Tetrazolium dyes change colour on reduction, which living cells bring about.

The test system of data set [1] is HepG2 (liver) cancer cells. Description: MTT antiproliferative assay, HepG2 liver carcinoma. The note with it: 48 h incubation, read-out: IC50 for the Different Carcinoma Cell Lines, HepG2 (Liver). The format is cell-based, human. As for the experimental part: as §1
The test system of data set [2] is MCF-7 (breast) cancer cells. Kind of data set: MTT antiproliferative assay, MCF-7 breast carcinoma. The data set is classed as cell-based, human. The note with it: 48 h incubation, MCF-7 cells, read-out: IC50 for the Different Carcinoma Cell Lines, MCF-7 (Breast). As for the experimental part: as §1
The test system of the next data set is zebrafish embryos. Description: Zebrafish embryo toxicity screening. The note with it: for observable toxicity / development of treated zebrafish embryos: up to 3 days post treatment. The data set is classed as in vivo. The source says:
Wild-type zebrafish strain AB/Tuebingen TAB-14(AB/TuebingenTAB-14) (Catalog ID: ZL1438) were obtained from zebrafish international resource center and grown in an animal facility at the Department of Zoology, King Saud University, Riyadh, Kingdom of Saudi Arabia. The fish were maintained and bred following guidelines of the Institutional Animal Care and Use Committee (ICUAC) and zebrafish book. The fertilized embryos were obtained by natural pairwise breeding of adult fish. The fertilized embryos were sorted, dead embryos were removed, and synchronous stage embryos were used for screening.
A stock solution of 25 mM was made by dissolving the compounds in molecular biology grade DMSO (Sigma Aldrich, St. Louis, MI, USA). Zebrafish embryos were exposed to serial dilution (1, 5, 15, 45, 150, and 300 µM) of each compound. The embryos were remained exposed to the compounds for 3 days, and the embryos medium containing the compounds were changed every day. The response of the embryos toward mortality, and embryonic toxicity (teratogenicity) was monitored once after 12 h and then after every 24 h until the end of the experiment. The experiment was repeated at least three times (triplicate biological repeats) by using a new batch of embryos every time. LC50 for zebrafish embryonic toxicity was calculated by using an updated Probit analysis by Finney method.

Entries after “also recorded” stand apart in the source; their conditions may differ. Like-named read-outs stand apart in the source and are kept apart here.

On to `Cc1c2c(cc3c1[C@@H](O)COC3=O)CC(C)(C)C2` [Compound 1, asperorlactone], for which the IC50 (as a rule, the midpoint of a concentration-inhibition curve) in the data set on A549 (lung) cancer cells was 72.7 ± 1.1 µM; in the data set with A549 (lung) cancer cells (Homo sapiens, A549, 48 h), less than 100 µM; in data set [1], 86.6 ± 3.2 µM; in data set [1] (Homo sapiens, HepG2, 48 h) it was less than 100 µM; in data set [2] it was 106 ± 4.2 µM; in data set [2] (Homo sapiens, MCF7, 48 h) it was less than 100 µM. Moreover, the “toxicity in zebrafish embryos” value in the data set with zebrafish embryos (more than 200 µM compound, after 2 days post treatment) was “cardiac toxicity (cardiac edema and cardiac hypertrophy”.
Turning to `COc1cccc2c1C(=O)c1c(O)c3c(c(O)c1C2=O)C[C@@](O)(C(=O)CO)C[C@@H]3O[C@H]1C[C@H](N)[C@H](O)[C@H](C)O1` [Doxorubicin, doxorubicin, reference compound], the concentration for half-maximal inhibition (IC50) in the data set on A549 (lung) cancer cells (Homo sapiens, A549, 48 h) turned out to be 2.1 ± 0.08 µM; in data set [1] (Homo sapiens, HepG2, 48 h), 2.2 ± 0.15 µM; in data set [2] (Homo sapiens, MCF7, 48 h) it was 1.9 ± 0.05 µM.
Take `O=Cc1ccc(O)cc1` [Compound 5, 4-hydroxybenzaldehyde]: the IC50 was found to be 97.5 ± 2.6 µM in the data set on A549 (lung) cancer cells (Homo sapiens, A549, 48 h); 243 ± 6.4 µM in data set [1] (Homo sapiens, HepG2, 48 h); 158 ± 5.5 µM in data set [2] (Homo sapiens, MCF7, 48 h). The “observable toxicity / development of treated zebrafish embryos” value (from here on “observable toxicity / development”) in the data set on zebrafish embryos is reported as “did not exhibit any observable toxicity; also recorded: developed normally”.
On to `CC(=O)OCc1cc(=O)occ1O` [Compound 4, (5-hydroxy-2-oxo-2H-pyran-4-yl)methyl acetate], for which the IC50 was 89.4 ± 2.3 µM with A549 (lung) cancer cells (Homo sapiens, A549, 48 h); 127 ± 6.4 µM in data set [1] (Homo sapiens, HepG2, 48 h); 171 ± 4.5 µM in data set [2] (Homo sapiens, MCF7, 48 h). Moreover, in the data set on zebrafish embryos (after 24 h post treatment, initial development normal), the “death of treated embryos” value is on record as 100%. Also, in the data set with zebrafish embryos, the “observable toxicity / development” value was “found dead on day 2”.
Take `O=c1cc(CO)c(O)co1` [Compound 3, 4-(hydroxymethyl)-5-hydroxy-2H-pyran-2-one]: the half-inhibitory concentration (IC50) amounted to 208 ± 6.8 µM with A549 (lung) cancer cells (Homo sapiens, A549, 48 h); 220 ± 3.6 µM in data set [1] (Homo sapiens, HepG2, 48 h); 225 ± 5.1 µM in data set [2] (Homo sapiens, MCF7, 48 h). The “observable toxicity / development” value with zebrafish embryos is “did not exhibit any observable toxicity; also recorded: developed normally”.
Turning to `Cc1c2c(cc3c1CCOC3=O)C[C@](C)(CO)C2` [Compound 2, echinolactone D], the IC50 was found to be 55.7 ± 2.5 µM in the data set on A549 (lung) cancer cells (Homo sapiens, A549, 48 h); 148 ± 5.6 µM in data set [1] (Homo sapiens, HepG2, 48 h); 128 ± 2.8 µM in data set [2] (Homo sapiens, MCF7, 48 h). Moreover, the “observable toxicity / development” value with zebrafish embryos is recorded as “did not exhibit any observable toxicity; also recorded: developed normally”.
